Results taken from the supplement of paper PMC10307832.

Tests used:
Experiment in all cases: relative viability (nuclei count vs DMSO), 5 days (fraction); higher = more cells survive
A549 = test system: A549
How it was run: (§1)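 A single step with final 0.05% Triton X-100, 1% formaldehyde and 1 ug/ml Hoechst fixed the cells and stained nuclei 5 days after treatment. Lung cancer cell lines in 1536-well plates had been treated by pin tool the day after seeding with one drug alone or a fixed anchor-drug dose plus five library-drug doses (not always all listed) in √10 steps, and nuclei were counted on 4× images. Relative viability is the ratio of nuclei in treated wells to nuclei in vehicle wells, taken as the median of duplicate plates.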

Calu-6 = test system: Calu-6
How it was run: as §1

EBC-1 = test system: EBC-1
How it was run: as §1

HCC-15 = test system: HCC-15
How it was run: as §1

IA-LM = test system: IA-LM
How it was run: as §1

LCLC-103H = test system: LCLC-103H
How it was run: as §1

NCI-H1299 = test system: NCI-H1299
How it was run: as §1

NCI-H1703 = test system: NCI-H1703
How it was run: as §1

UMC-11 = test system: UMC-11
How it was run: as §1

## CC1(C)CCC(c2ccc(Cl)cc2)=C(CN2CCN(c3ccc(C(=O)NS(=O)(=O)c4ccc(N[C@H](CCN5CCOCC5)CSc5ccccc5)c(S(=O)(=O)C(F)(F)F)c4)cc3)CC2)C1 [Navitoclax] + C[C@@H](Oc1cc(-c2cnn(C3CCNCC3)c2)cnc1N)c1c(Cl)ccc(F)c1Cl [Crizotinib] (partner 1 µM)
A549; first compound 0.005 µM
  relative viability: 0.756
A549; first compound 0.01581 µM
  relative viability: 0.805
A549; first compound 0.05 µM
  relative viability: 0.825
A549; first compound 0.1581 µM
  relative viability: 0.729
A549; first compound 0.5 µM
  relative viability: 0.744
Calu-6; first compound 0.005 µM
  relative viability: 0.843
Calu-6; first compound 0.01581 µM
  relative viability: 0.812
Calu-6; first compound 0.05 µM
  relative viability: 0.894
Calu-6; first compound 0.1581 µM
  relative viability: 0.741
Calu-6; first compound 0.5 µM
  relative viability: 0.78
EBC-1; first compound 0.005 µM
  relative viability: 0.178
EBC-1; first compound 0.01581 µM
  relative viability: 0.227
EBC-1; first compound 0.05 µM
  relative viability: 0.192
EBC-1; first compound 0.1581 µM
  relative viability: 0.195
EBC-1; first compound 0.5 µM
  relative viability: 0.204
HCC-15; first compound 0.005 µM
  relative viability: 0.802
HCC-15; first compound 0.01581 µM
  relative viability: 0.848
HCC-15; first compound 0.05 µM
  relative viability: 0.883
HCC-15; first compound 0.1581 µM
  relative viability: 0.822
HCC-15; first compound 0.5 µM
  relative viability: 0.786
IA-LM; first compound 0.005 µM
  relative viability: 0.861
IA-LM; first compound 0.01581 µM
  relative viability: 0.636
IA-LM; first compound 0.05 µM
  relative viability: 0.875
IA-LM; first compound 0.1581 µM
  relative viability: 0.944
IA-LM; first compound 0.5 µM
  relative viability: 0.908
LCLC-103H; first compound 0.005 µM
  relative viability: 1.05
LCLC-103H; first compound 0.01581 µM
  relative viability: 0.979
LCLC-103H; first compound 0.05 µM
  relative viability: 0.951
LCLC-103H; first compound 0.1581 µM
  relative viability: 1.12
LCLC-103H; first compound 0.5 µM
  relative viability: 0.976
NCI-H1299; first compound 0.005 µM
  relative viability: 0.99
NCI-H1299; first compound 0.01581 µM
  relative viability: 0.99
NCI-H1299; first compound 0.05 µM
  relative viability: 1.02
NCI-H1299; first compound 0.1581 µM
  relative viability: 0.926
NCI-H1299; first compound 0.5 µM
  relative viability: 0.981
NCI-H1703; first compound 0.005 µM
  relative viability: 0.73
NCI-H1703; first compound 0.01581 µM
  relative viability: 0.602
NCI-H1703; first compound 0.05 µM
  relative viability: 1.22
NCI-H1703; first compound 0.1581 µM
  relative viability: 0.726
NCI-H1703; first compound 0.5 µM
  relative viability: 0.754
UMC-11; first compound 0.005 µM
  relative viability: 0.646
UMC-11; first compound 0.01581 µM
  relative viability: 0.583
UMC-11; first compound 0.1581 µM
  relative viability: 0.636
UMC-11; first compound 0.5 µM
  relative viability: 0.401

## CC1(C)CCC(c2ccc(Cl)cc2)=C(CN2CCN(c3ccc(C(=O)NS(=O)(=O)c4ccc(N[C@H](CCN5CCOCC5)CSc5ccccc5)c(S(=O)(=O)C(F)(F)F)c4)cc3)CC2)C1 [Navitoclax] + C[C@]1(O)C[C@@H](c2nc(-c3ccc4ccc(-c5ccccc5)nc4c3)c3c(N)nccn32)C1 [Linsitinib] (partner 1 µM)
A549; first compound 0.005 µM
  relative viability: 0.681
A549; first compound 0.01581 µM
  relative viability: 0.669
A549; first compound 0.05 µM
  relative viability: 0.511
A549; first compound 0.1581 µM
  relative viability: 0.558
A549; first compound 0.5 µM
  relative viability: 0.591
Calu-6; first compound 0.005 µM
  relative viability: 0.927
Calu-6; first compound 0.01581 µM
  relative viability: 0.984
Calu-6; first compound 0.05 µM
  relative viability: 0.965
Calu-6; first compound 0.1581 µM
  relative viability: 0.903
Calu-6; first compound 0.5 µM
  relative viability: 0.918
EBC-1; first compound 0.005 µM
  relative viability: 0.893
EBC-1; first compound 0.01581 µM
  relative viability: 1.09
EBC-1; first compound 0.05 µM
  relative viability: 0.974
EBC-1; first compound 0.1581 µM
  relative viability: 1.05
EBC-1; first compound 0.5 µM
  relative viability: 0.86
HCC-15; first compound 0.005 µM
  relative viability: 0.819
HCC-15; first compound 0.01581 µM
  relative viability: 0.97
HCC-15; first compound 0.05 µM
  relative viability: 0.783
HCC-15; first compound 0.1581 µM
  relative viability: 0.842
HCC-15; first compound 0.5 µM
  relative viability: 0.843
IA-LM; first compound 0.005 µM
  relative viability: 0.551
IA-LM; first compound 0.01581 µM
  relative viability: 0.793
IA-LM; first compound 0.05 µM
  relative viability: 0.537
IA-LM; first compound 0.1581 µM
  relative viability: 0.587
IA-LM; first compound 0.5 µM
  relative viability: 0.654
LCLC-103H; first compound 0.005 µM
  relative viability: 1.07
LCLC-103H; first compound 0.01581 µM
  relative viability: 1.19
LCLC-103H; first compound 0.05 µM
  relative viability: 1.09
LCLC-103H; first compound 0.1581 µM
  relative viability: 1.03
LCLC-103H; first compound 0.5 µM
  relative viability: 1.02
NCI-H1299; first compound 0.005 µM
  relative viability: 0.949
NCI-H1299; first compound 0.01581 µM
  relative viability: 1
NCI-H1299; first compound 0.05 µM
  relative viability: 0.878
NCI-H1299; first compound 0.1581 µM
  relative viability: 0.981
NCI-H1299; first compound 0.5 µM
  relative viability: 0.984
NCI-H1703; first compound 0.005 µM
  relative viability: 0.935
NCI-H1703; first compound 0.01581 µM
  relative viability: 1
NCI-H1703; first compound 0.05 µM
  relative viability: 1.19
NCI-H1703; first compound 0.1581 µM
  relative viability: 1
NCI-H1703; first compound 0.5 µM
  relative viability: 0.813
UMC-11; first compound 0.005 µM
  relative viability: 0.97
UMC-11; first compound 0.01581 µM
  relative viability: 1.03
UMC-11; first compound 0.1581 µM
  relative viability: 1.01
UMC-11; first compound 0.5 µM
  relative viability: 0.893
